Reference: patent publication US20060287251A1, “Combination therapy for glycaemic control” (priority 2003, published 2006)

Experiments:
[1] = Plasma stability; assay type: in vitro ADME, human; conditions: 37 °C; for stability in human plasma: human plasma in vitro; for half-life of the inhibitory potency: human plasma, 5*10^−5, 2.5*10^−5, 1.25*10^−5 M
Experimental: In order to investigate the stability of glutaminyl pyrrolidine or glutaminyl thiazolidine in human plasma, the activity of DPIV in plasma was determined at a defined time. The average DPIV activity in human plasma was determined as 43.69 U/mL. In the working solution, the plasma was diluted in 0.9% NaCl to fix the DPIV activity level at 25 U/mL. Plasma and glutaminyl pyrrolidine or glutaminyl thiazolidine in different concentrations (5*10^−5, 2.5*10^−5, 1.25*10^−5 M in plasma) were incubated at 37° C. At defined time points samples were taken using a pipette roboter (Gilson 215, Liquid handler, Gilson) and transferred in a microtiter plate containing 5*10^−5 M glycylprolylaminomethylcoumarine in 0.9% NaCl+015% Brij per well. After 6 min the reaction was stopped by addition of isoleucylthiazolidine (5*10^−5 M in 0.9% NaCl solution). Fluorescence measurement was performed against 0.9% NaCl in plasma (reference standard) using a plate reader (HTS7000 plus, Applied Biosystems, Weiterstadt, Germany). The half-life of the inhibitory potency of glutaminyl pyrrolidine or glutaminyl thiazolidine was calculated by plotting the enzyme activity versus reaction time.

[2] = molecular target: T1, Dipeptidyl Peptidase I (cathepsin C) (Rattus norvegicus, UniProt P80067); assay: Cross reacting enzymes: dipeptidyl peptidase I; assay type: biochemical; conditions: concentration range 1*10^−5 M-1*10^−7 M
T1 construct: purchased Qiagen GmbH, Hilden, Germany
T1 sequence (P80067 25-462): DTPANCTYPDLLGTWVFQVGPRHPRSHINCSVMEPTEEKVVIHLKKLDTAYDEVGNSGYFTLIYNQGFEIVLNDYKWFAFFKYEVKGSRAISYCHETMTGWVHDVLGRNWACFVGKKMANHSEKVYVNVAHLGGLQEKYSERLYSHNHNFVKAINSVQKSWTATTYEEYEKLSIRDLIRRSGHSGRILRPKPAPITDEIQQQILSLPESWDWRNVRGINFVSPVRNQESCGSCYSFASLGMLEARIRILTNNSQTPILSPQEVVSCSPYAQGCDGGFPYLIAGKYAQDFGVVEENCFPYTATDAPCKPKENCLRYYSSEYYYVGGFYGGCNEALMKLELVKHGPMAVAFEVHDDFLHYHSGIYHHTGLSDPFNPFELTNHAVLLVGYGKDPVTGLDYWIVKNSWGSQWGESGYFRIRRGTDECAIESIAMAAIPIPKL
Experimental: (§1) Glutaminyl pyrrolidine or glutaminyl thiazolidine were tested for their cross reacting potency against dipeptidyl peptidase I, prolyl oligopeptidase and prolidase.
DP I or cathepsin C is a lysosomal cysteine protease which cleaves dipeptides from the N-terminus of their substrates (Gutman, H. R. & Fruton, J. S., 1948, J Biol. Chem., 174, 851-858). It is classified as a cysteine protease. The enzyme used was purchased from Qiagen (Qiagen GmbH, Hilden, Germany). In order to get a fully active enzyme, the enzyme was diluted 1000 fold in MES buffer pH5.6 (40 mM MES, 4 mM DTT, 4 mM KCl, 2 mM EDTA, 0.015% Brij) and pre-incubated for 30 min at 30° C. 50 μL glutaminyl pyrrolidine or glutaminyl thiazolidine in a concentration range of 1*10^−5 M-1*10^−7 M were admixed with 110 μL buffer-enzyme-mixture. The assay mixture was pre-incubated at 30° C. for 15 min After pre-incubation, 100 μL histidylseryl-para-nitroanilide (2*10^−5 M) were added and measurement of yellow color development due to para-nitroaniline release was performed at 30° C. and […] for 10 min, using a plate reader (HTS7000 plus, Applied Biosystems, Weiterstadt, Germany). The IC50-values were calculated using Graphit 4.0.15 (Erithacus Software, Ltd., UK). No inhibition of the DP I enzyme activity by glutaminyl pyrrolidine or glutaminyl thiazolidine was found.

[3] = molecular target: T2, recombinant human prolyl oligopeptidase (Homo sapiens, UniProt P48147); assay: Cross reacting enzymes: prolyl oligopeptidase; assay type: biochemical; conditions: concentration range 1*10^−4 M-5*10^−8 M
T2 construct: made in house; host or cells: E. coli
T2 sequence (P48147 1-710): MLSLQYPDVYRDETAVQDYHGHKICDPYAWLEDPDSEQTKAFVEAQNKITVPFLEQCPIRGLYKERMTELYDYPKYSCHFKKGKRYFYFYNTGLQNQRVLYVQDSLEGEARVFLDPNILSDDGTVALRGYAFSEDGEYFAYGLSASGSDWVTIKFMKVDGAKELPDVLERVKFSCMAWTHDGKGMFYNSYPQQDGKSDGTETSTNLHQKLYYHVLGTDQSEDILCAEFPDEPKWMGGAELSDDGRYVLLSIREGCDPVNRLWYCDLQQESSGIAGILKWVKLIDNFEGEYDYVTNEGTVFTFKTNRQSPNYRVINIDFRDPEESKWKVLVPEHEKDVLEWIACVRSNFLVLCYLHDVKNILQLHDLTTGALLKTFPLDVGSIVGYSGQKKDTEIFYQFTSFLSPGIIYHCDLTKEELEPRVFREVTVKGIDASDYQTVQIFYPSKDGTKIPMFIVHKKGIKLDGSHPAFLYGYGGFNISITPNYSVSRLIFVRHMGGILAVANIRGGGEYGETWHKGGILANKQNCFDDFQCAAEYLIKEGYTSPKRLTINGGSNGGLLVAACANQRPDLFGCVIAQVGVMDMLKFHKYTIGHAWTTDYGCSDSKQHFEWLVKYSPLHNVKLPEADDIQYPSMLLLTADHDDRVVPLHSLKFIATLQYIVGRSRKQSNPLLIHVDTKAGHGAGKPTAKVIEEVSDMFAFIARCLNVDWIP
Experimental: as §1
Prolyl oligopeptidase (EC 3.4.21.26) is a serine type endoprotease which cleaves off peptides at the N-terminal part of the Xaa-Pro bond (Walter, R., Shlank, H., Glass, J. D., Schwartz, I. L. & Kerenyi, T. D., 1971, Science, 173, 827-829). Substrates are peptides with a molecular weight up to 3000 Da. The enzyme used was a recombinant human prolyl oligopeptidase. Recombinant expression was performed in E. coli under standard conditions as described elsewhere in the state of the art. 100 μL glutaminyl pyrrolidine or glutaminyl thiazolidine in an concentration range of 1*10^−4 M-5*10^−8 M were admixed with 100 μL buffer solution (40 mM HEPES, pH 7.6, 0.015% Brij, 1 mM DTT) and 20 μL POP solution. The assay mixture was pre-incubated at 30° C. for 15 min After pre-incubation, 50 μL glycylprolylprolyl-4-nitroaniline solution (0.29 mM) were added and measurement of yellow color development due to 4-nitroaniline release was performed at 30° C. and λ=405 nm for 10 min using a plate reader (sunrise, Tecan, Crailsheim, Germany). The IC 50-values were calculated using Graphit 4.0.15 (Erithacus Software, Ltd., UK). No inhibition of POP activity by glutaminyl pyrrolidine or glutaminyl thiazolidine was found.

| SMILES | stability in human plasma [1] | half-life of the inhibitory potency [1] | inhibition of the DP I enzyme activity [2] | inhibition of POP activity [3] |
| --- | --- | --- | --- | --- |
| NC(=O)CC[C@H](N)C(=O)N1CCCC1 [glutaminyl pyrrolidine] | stable in human plasma over 22 hours | no half-time could be determined | No inhibition | No inhibition |
| NC(=O)CC[C@H](N)C(=O)N1CCSC1 [glutaminyl thiazolidine] | stable in human plasma over 22 hours | no half-time could be determined | No inhibition | No inhibition |
